Measured values: patent publication US20010033864A1, “Low dose entecavir formulation and use” (priority 2000, published 2001)

Experiments:
hepatitis B virus [1] = assay: 24-week randomized, double-blind, lamivudine-controlled trial of safety and antiviral activity in chronic hepatitis B; format: in vivo, human; conditions: 24 weeks
Procedure: The safety and antiviral activity of three doses of entecavir (0.01 mg, 0.1 mg and 0.5 mg) given once daily for 24 weeks were studies in adults with chronic hepatitis B in a randomized, double-blind, lamivudine (100 mg QD) controlled trial.

hepatitis B virus [2] = assay: 28-day randomized, double-blind, placebo-controlled, dose-escalating trial of safety and antiviral activity in chronic hepatitis B; format: in vivo, human; conditions: for mean log reduction in hepatitis B virus DNA viral levels in the blood: human subjects with chronic HBV infection, day 28
Procedure: The safety and antiviral activity of entecavir given for 28 days to human subjects with chronic hepatitis B virus infection was studied in a randomized, double-blind, placebo-controlled, dose-escalating trial. […] The mean log reduction in hepatitis B virus DNA viral levels in the blood at day 28 were 2.21, 2.25, 2.81, and 2.42 for the 0.05, 0.1, 0.5 and 1.0 mg once daily doses of entecavir, respectively.

Q: Which safety / tolerability (hepatitis B virus [1]; all doses (0.01, 0.1, 0.5 mg once daily)) does the source give for C=C1C(CO)C(O)C[C@@H]1n1cnc2c(=O)[nH]c(N)nc21 (stereo partly drawn) [Entecavir, [1S-(1α,3α, 4β)]-2-amino-1,9-dihydro-9-[4-hydroxy-3-(hydroxymethyl)-2-methylenecyclopentyl]-6H-purin-6-one] here?
A: well tolerated

Q: And the antiviral activity (hepatitis B virus [1]; all three doses (0.01, 0.1, 0.5 mg once daily), adults with chronic hepatitis B)?
A: potent antiviral activity

Q: What about the “reductions in hepatitis B virus DNA viral levels in blood compared to lamivudine” value (hepatitis B virus [1]; two higher doses (0.1 mg and 0.5 mg once daily), vs lamivudine 100 mg QD) of the same compound?
A: significantly greater reductions

Q: And the safety / tolerability (hepatitis B virus [2]; 0.05-1.0 mg once daily for 28 days, human subjects)?
A: well tolerated

Q: And the antiviral activity (hepatitis B virus [2]; all doses tested (0.05, 0.1, 0.5, 1.0 mg once daily), 28 days)?
A: potent antiviral activity

Q: What about the “mean log reduction in hepatitis B virus DNA viral levels in the blood” value (shortened to “mean log reduction”) (hepatitis B virus [2]; 0.05 mg once daily) of the same compound?
A: 2.21 log

Q: What about the “mean log reduction” value (hepatitis B virus [2]; 0.1 mg once daily) of the same compound?
A: 2.25 log

Q: And the “mean log reduction” value (hepatitis B virus [2]; 0.5 mg once daily)?
A: 2.81 log

Q: What about the “mean log reduction” value (hepatitis B virus [2]; 1.0 mg once daily) of the same compound?
A: 2.42 log
